Data from ChEMBL document CHEMBL5329153, “Is structural hybridization invoking new dimensions for antimalarial drug discovery research?” (RSC Med Chem, 2023).
Values after ≈ are worked out from the molar mass of the structure shown.

Key:
Format in all cases: functional, organism-based
Plasmodium falciparum [1] = experiment: Antimalarial activity against Chloroquine resistant Plasmodium falciparum W2 assessed as parasitic growth inhibition measured after 48 hrs by fluorescence based assay; conditions: W2, 48 h
Plasmodium falciparum [2] = experiment: Antimalarial activity against Plasmodium falciparum Dd2 assessed as parasitic growth inhibition
Plasmodium falciparum [3] = experiment: Antimalarial activity against Plasmodium falciparum K1 assessed as parasitic growth inhibition
Plasmodium falciparum [4] = experiment: Antimalarial activity against Plasmodium falciparum 3D7 assessed as parasitic growth inhibition
Plasmodium falciparum [5] = experiment: Antimalarial activity against Chloroquine-pyrimethamine resistant Plasmodium falciparum W2 assessed as parasitic growth inhibition measured after 48 hrs; conditions: W2, 48 h
Plasmodium falciparum [6] = experiment: Antimalarial activity against Chloroquine-pyrimethamine sensitive Plasmodium falciparum D6 assessed as parasitic growth inhibition measured after 48 hrs; conditions: D6, 48 h
Plasmodium falciparum [7] = experiment: Antimalarial activity against Chloroquine sensitive Plasmodium falciparum assessed as parasitic growth inhibition
Plasmodium falciparum [8] = experiment: Antimalarial activity against Chloroquine resistant Plasmodium falciparum W2 assessed as parasitic growth inhibition
Plasmodium falciparum [9] = experiment: Antimalarial activity against Chloroquine sensitive Plasmodium falciparum D6 assessed as parasitic growth inhibition
Plasmodium falciparum [10] = experiment: Antimalarial activity against Chloroquine sensitive Plasmodium falciparum RKL-2 assessed as parasitic growth inhibition measured after 36 to 40 hrs by Giemsa staining based assay
Plasmodium falciparum [11] = experiment: Antimalarial activity against Plasmodium falciparum assessed as parasitic growth inhibition
Plasmodium falciparum [12] = experiment: Antimalarial activity against Plasmodium falciparum 3D7 assessed as parasitic growth inhibition measured after 72 hrs by SYBR Green dye based assay; conditions: 3D7, 72 h
Plasmodium falciparum [13] = experiment: Antimalarial activity against chloroquine sensitive Plasmodium falciparum 3D7 assessed as parasitic growth inhibition by SYBR Green I dye based assay
Plasmodium falciparum [14] = experiment: Antimalarial activity against Chloroquine resistant Plasmodium falciparum assessed as parasitic growth inhibition by microscopic anlaysis

| SMILES | EC50 (Plasmodium falciparum [2]) [nM] | EC50 (Plasmodium falciparum [3]) [nM] | EC50 (Plasmodium falciparum [4]) [nM] | other results |
| --- | --- | --- | --- | --- |
| O=C1c2cccc(N3CCOCC3)c2C(=O)N1CCCCNc1ccnc2cc(Cl)ccc12 | – | – | – | IC50 (Plasmodium falciparum [1]): 71 nM |
| C[C@H]1[C@H](OC(=O)CCC(=O)NCCNc2ccnc3cc(Cl)ccc23)O[C@@H]2O[C@]3(C)CC[C@H]4[C@H](C)CC[C@@H]1[C@@]24OO3 | 1 | 0.78 | 2.7 | – |
| N=C(N=C(N)N)SCCNc1ccnc2cc(Cl)ccc12 | – | – | – | IC50 (Plasmodium falciparum [5]): 3710 nM; IC50 (Plasmodium falciparum [6]): 2250 nM |
| CC1=C(C(=O)Nc2ccc(Br)cn2)C(c2cn(-c3ccccc3)nc2-c2ccc(C)cc2)NC(=O)N1 (stereo not drawn) | – | – | – | IC50 (Plasmodium falciparum [7]): 0.08 µg/mL (≈ 0.147 µM) |
| Cc1cc(NCCCCCCNc2ccnc3cc(Cl)ccc23)nc(Nc2ccc(C(=O)N3CCOCC3)cc2)n1 | – | – | – | IC50 (Plasmodium falciparum [8]): 33 nM; IC50 (Plasmodium falciparum [9]): 32 nM |
| C[C@H]1[C@H](OC(=O)CCC(=O)OCCNc2ccnc3cc(Cl)ccc23)O[C@@H]2O[C@]3(C)CC[C@H]4[C@H](C)CC[C@@H]1[C@@]24OO3 | 2.3 | 1.7 | 4.5 | – |
| C#CCCCN(CCNc1ccnc2cc(Cl)ccc12)C(=O)CCC(=O)O[C@@H]1O[C@@H]2O[C@]3(C)CC[C@H]4[C@H](C)CC[C@@H]([C@H]1C)[C@@]24OO3 | 1.6 | 1.3 | 3.5 | – |
| C[C@H]1[C@H](OC(=O)CCC(=O)OCCCc2cn(-c3ccnc4cc(Cl)ccc34)nn2)O[C@@H]2O[C@]3(C)CC[C@H]4[C@H](C)CC[C@@H]1[C@@]24OO3 | 4.6 | 2.4 | 5.4 | – |
| C[C@H]1[C@@H](OCc2cn(-c3cccc4cc(Cl)ccc34)nn2)O[C@@H]2O[C@]3(C)CC[C@H]4[C@H](C)CC[C@@H]1[C@@]24OO3 | 5.9 | 4.3 | 9 | – |
| Clc1ccc2c(NCCCNc3nc(Nc4ccc(N5CCOCC5)cc4)nc(Nc4ccc(N5CCOCC5)cc4)n3)ccnc2c1 | – | – | – | IC50 (Plasmodium falciparum [10]): 47.5 µg/mL (≈ 71.2 µM) |
| C[C@H]1[C@H](OC(=O)CCC(=O)OCCCCc2cn(-c3ccnc4cc(Cl)ccc34)nn2)O[C@@H]2O[C@]3(C)CC[C@H]4[C@H](C)CC[C@@H]1[C@@]24OO3 | 4.4 | 2.5 | 6.2 | – |
| CCNC(=S)NNC(=O)c1c(C)nc2ccccc2c1C | – | – | – | IC50 (Plasmodium falciparum [11]): 0.15 µg/mL (≈ 0.496 µM) |
| Cc1nc2ccccc2c(C)c1C(=O)NNC(=S)Nc1ccc(Cl)cc1 | – | – | – | IC50 (Plasmodium falciparum [11]): 0.15 µg/mL (≈ 0.39 µM) |
| C[C@H]1[C@H](OC(=O)CCC(=O)Oc2ccc(Nc3ncnc4ccccc34)cc2)O[C@@H]2O[C@@]3(C)CC[C@H]4[C@H](C)CC[C@@H]1[C@@]24OO3 | – | – | – | EC50 (Plasmodium falciparum [12]): 3.8 nM |
| C[C@H]1[C@H](OC(=O)CCC(=O)Nc2cccc3ncnc(Nc4ccc(Cl)c(Cl)c4)c23)O[C@@H]2O[C@@]3(C)CC[C@H]4[C@H](C)CC[C@@H]1[C@@]24OO3 | – | – | – | EC50 (Plasmodium falciparum [12]): 1.4 nM |
| COc1cccc(NC(=S)NNC(=O)c2c(C)nc3ccccc3c2C)c1 | – | – | – | IC50 (Plasmodium falciparum [11]): 0.1 µg/mL (≈ 0.263 µM) |

| SMILES | EC50 (Plasmodium falciparum [2]) [nM] | EC50 (Plasmodium falciparum [3]) [nM] | EC50 (Plasmodium falciparum [4]) [nM] | other results |
| --- | --- | --- | --- | --- |
| Cc1nc2ccccc2c(C)c1C(=O)NNC(N)=S | – | – | – | IC50 (Plasmodium falciparum [11]): 0.19 µg/mL (≈ 0.693 µM) |
| C#CCCCC(C(=O)NCCOC(=O)CCC(=O)O[C@@H]1O[C@@H]2O[C@]3(C)CC[C@H]4[C@H](C)CC[C@@H]([C@H]1C)[C@@]24OO3)c1ccnc2cc(Cl)ccc12 (stereo partly drawn) | 4.8 | 2.2 | 6 | – |
| CCCCN1C(=O)c2ccc3c4c(ccc(c24)C1=O)C(=O)C(CCNc1c2ccc(Cl)cc2nc2ccc(OC)cc12)C3=O | – | – | – | IC50 (Plasmodium falciparum [13]): 3.89 nM |
| Cc1nc2ccccc2c(C)c1C(=O)NNC(=S)Nc1ccc(F)cc1F | – | – | – | IC50 (Plasmodium falciparum [11]): 0.26 µg/mL (≈ 0.673 µM) |
| O=C1c2cccc(N3CCCCC3)c2C(=O)N1CCCCNc1ccnc2cc(Cl)ccc12 | – | – | – | IC50 (Plasmodium falciparum [1]): 51 nM |
| Cc1nc(-c2ccccc2)c(-c2ccccc2)c2cc(-c3cn(CCOC(=O)CCC(=O)O[C@@H]4O[C@@H]5O[C@]6(C)CC[C@H]7[C@H](C)CC[C@@H]([C@H]4C)[C@@]57OO6)nn3)ccc12 | 4.8 | 3.3 | 5.3 | – |
| CN(C)c1nc(N)nc(NCCNc2ccnc3cc(Cl)ccc23)n1 | – | – | – | IC50 (Plasmodium falciparum [4]): 46.3 µg/mL (≈ 129 µM) |
| COc1ccc2nc3cc(Cl)ccc3c(NCC3C(=O)c4ccc5c6c(ccc(c46)C3=O)C(=O)N(CN(C)C)C5=O)c2c1 | – | – | – | IC50 (Plasmodium falciparum [13]): 4.33 nM |
| C[C@H]1[C@@H](OCCc2cn(-c3cccc4cc(Cl)ccc34)nn2)O[C@@H]2O[C@]3(C)CC[C@H]4[C@H](C)CC[C@@H]1[C@@]24OO3 | 4.5 | 2 | 8.8 | – |
| CCCCNC(=S)NNC(=O)c1cc(-c2ccc(F)cc2)nc2c(Cl)cc(C(F)(F)F)cc12 | – | – | – | IC50 (Plasmodium falciparum [14]): 0.28 µg/mL |
| Cc1nc2ccccc2c(C)c1C(=O)NNC(=S)Nc1ccc([N+](=O)[O-])cc1 | – | – | – | IC50 (Plasmodium falciparum [11]): 0.25 µg/mL (≈ 0.632 µM) |
| CCCCc1nc(C)c2ccc(-c3cn(CCOC(=O)CCC(=O)O[C@@H]4O[C@@H]5O[C@]6(C)CC[C@H]7[C@H](C)CC[C@@H]([C@H]4C)[C@@]57OO6)nn3)cc2c1CCCC | 10 | 4.2 | 9.2 | – |
| C[C@H]1[C@@H](OCCCc2cn(-c3cccc4cc(Cl)ccc34)nn2)O[C@@H]2O[C@]3(C)CC[C@H]4[C@H](C)CC[C@@H]1[C@@]24OO3 | 5.1 | 3.8 | 9.4 | – |
| C[C@H]1[C@H](OC(=O)CCC(=O)OCc2cn(-c3ccnc4cc(Cl)ccc34)nn2)O[C@@H]2O[C@]3(C)CC[C@H]4[C@H](C)CC[C@@H]1[C@@]24OO3 (racemic) | 4.2 | 1.8 | 5.3 | – |
| CCc1nc(N)nc(N)c1-c1ccc(Cl)cc1 [PYRIMETHAMINE] | – | – | – | IC50 (Plasmodium falciparum [7]): 0.25 µg/mL (≈ 1.01 µM) |
| C=C[C@H]1CN2CC[C@H]1C[C@H]2[C@H](O)c1ccnc2ccc(OC)cc12 [QUININE] | – | – | – | IC50 (Plasmodium falciparum [14]): 0.268 µg/mL |
